Assays:
Assay type in all cases: biochemical
[1] = tested on: Lipase from Alcaligines sp.; assay: Enantioselective acylation of R,S-1-phenyl ethanol in ionic liquids
Description: (§1) 4.4 ml of an ionic liquid in accordance with Table 3 or tert-butylmethyl ether are mixed with 122 μl of vinyl acetate and 54 μl of 1-phenyl ethanol so that a substrate solution with approximately 0.1 mol/l of 1-phenyl ethanol and 0.3 mol/l of vinyl acetate is obtained. Each 1 mg of lyophilised lipase (>120 U/mg) is mixed with 0.4 ml of substrate solution, thoroughly mixed and incubated at 24° C. for 3-4 days, shaking slightly.
(§2) This hexane/isopropanol extract is used to determine the concentrations and enantiomer ratios of 1-phenyl ethanol and 1-phenylethyl acetate using HPLC. The conversion and the enantiomer excess were calculated from these concentrations (see Table 3).

[2] = tested on: Lipase from Candida antarctica (Type A); assay: as above
Description: as §1, §2

[3] = biological target: T1, Lipase from Candida antarctica (Type B) (Moesziomyces antarcticus, UniProt P41365); assay: Enantioselective acylation of R,S-1-phenylethanol in ionic liquids; details: 24° C., 3-4 days
Description: as §1, §2

[4] = tested on: Lipase from Pseudomonas sp.; assay: Enantioselective acylation of R,S-1-phenyl ethanol in ionic liquids; parameters: key: (+) good to better; (±) the same
Description: as §1
For further processing 100 μl of the reaction formulation is mixed with 1 ml of n-hexane/Isopropanol (97.5/2.5 v/v) and mixed thoroughly. This hexane/isopropanol extract is used to determine the concentrations and enantiomer ratios of 1-phenyl ethanol and 1-phenylethyl acetate using HPLC. The conversion and the enantiomer excess were calculated from these concentrations (see Table 3).
Each 3 mg of lyophilised lipase (400 U/mg) is mixed with 0.4 ml of a substrate solution as in Example 3. The further procedure corresponds to that described in Example 3.

[5] = biological target: T2, Formate dehydrogenase from Candida boidinii (FDH) (Candida boidinii, UniProt O13437); assay: NAD reduction by formate dehydrogenase; enzyme activity with buffer replaced by ionic liquid; parameters: key: (+) good to better; (±) the same; details: 25° C., pH 7
T2 sequence (O13437 1-364): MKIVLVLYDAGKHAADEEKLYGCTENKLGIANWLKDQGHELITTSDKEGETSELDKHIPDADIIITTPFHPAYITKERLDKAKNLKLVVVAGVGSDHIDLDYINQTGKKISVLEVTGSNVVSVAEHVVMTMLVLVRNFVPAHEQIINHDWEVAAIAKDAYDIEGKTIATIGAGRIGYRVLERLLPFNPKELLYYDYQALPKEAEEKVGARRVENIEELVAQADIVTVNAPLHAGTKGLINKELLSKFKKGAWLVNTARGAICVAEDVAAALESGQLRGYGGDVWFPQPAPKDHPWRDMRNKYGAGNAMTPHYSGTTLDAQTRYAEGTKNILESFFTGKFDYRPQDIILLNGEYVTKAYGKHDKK
Description: The FDH-catalysed oxidation of formic acid to carbon dioxide by the reduction of nicotinamide adenine dinucleotide (NAD^+ to NADH+H^+) is used as the test reaction to determine the enzyme activity. In the enzyme assay the increase in NADH with time at 25° C. is detected photometrically at a wavelength of 340 nm.
Composition of the enzyme assay: 1 ml buffer solution (50 mM triethanolamine hydrochloride, 1 mM dithiothreitol, hydrochloric acid) pH 7 is mixed with 0.1 ml of aqueous sodium formate solution (2.4 M) and 0.1 ml of enzyme solution (0.7 mg/ml, 8.4 U). The enzyme solution already contains the cofactor NAD (6 mM).

[6] = biological target: T1, Lipase from Candida antarctica (Type B); assay: Recycling of the lipase in ionic liquid by distillation; details: 40 min at 40° C.; distillation 85° C., 0.06 mbar
Description: 600 mg of lyophilised lipase (approx. 10 U/mg) is mixed with 4 ml of ionic liquid (BMIm^+(CF3SO2)2N^−), 1.2 ml of vinyl acetate and 0.7 ml 1-phenyl ethanol and thoroughly mixed. The reaction mixture is incubated for 40 min at 40° C.
The non-converted educts and the reaction product […] is then distilled off (85° C., 0.06 mbar).
The enzyme/ionic liquid mixture is cooled, re-mixed with 1.2 ml of vinyl acetate and 0.7 ml of 1-phenyl ethanol and again incubated for 40 min at 40° C.

T1 sequence (P41365 26-342): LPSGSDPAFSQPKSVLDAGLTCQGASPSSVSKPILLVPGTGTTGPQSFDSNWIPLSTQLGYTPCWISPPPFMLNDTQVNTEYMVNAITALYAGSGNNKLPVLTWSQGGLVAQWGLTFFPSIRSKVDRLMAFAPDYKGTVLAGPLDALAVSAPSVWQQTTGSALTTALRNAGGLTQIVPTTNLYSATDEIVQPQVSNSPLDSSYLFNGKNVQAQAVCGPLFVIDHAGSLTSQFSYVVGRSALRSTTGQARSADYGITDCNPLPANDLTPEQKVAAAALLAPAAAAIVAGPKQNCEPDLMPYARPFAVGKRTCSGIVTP

Molecule | Conversion compared to the standard reaction in tert-butylmethyl ether [1] | Enantiomer excess compared to the standard reaction in tert-butylmethyl ether [1] | Conversion compared to the standard reaction in tert-butylmethyl ether [2] | Enantiomer excess compared to the standard reaction in tert-butylmethyl ether [2] | Conversion compared to the standard reaction in tert-butylmethyl ether [3] | Enantiomer excess compared to the standard reaction in tert-butylmethyl ether [3] | Conversion compared to the standard reaction in tert-butylmethyl ether [4] | Enantiomer excess compared to the standard reaction in tert-butylmethyl ether [4] | enzyme activity compared with the standard reaction in the buffer solution ([5]; 25 vol % ionic liquid) | enzyme activity compared with the standard reaction in the buffer solution ([5]; 50 vol % ionic liquid) | enzyme activity compared with the standard reaction in the buffer solution ([5]; 75 vol % ionic liquid) | lipase activity on repeated incubation and distilling off [6]
CCCCn1cc[n+](C)c1.F[P-](F)(F)(F)(F)F [BMIm^+ PF6^−, Butyl-methyl-imidazolium PF6^−] | ± | + | + | + | – | – | – | – | – | – | – | –
CCCCCCCCC[n+]1ccn(C)c1.F[P-](F)(F)(F)(F)F [NMIm^+ PF6^−, Nonyl-methyl-imidazolium PF6^−] | – | – | + | + | ± | + | – | – | – | – | – | –
CCCCCCn1cc[n+](C)c1.F[B-](F)(F)F [HMIm^+ BF4^−, Hexyl-methyl-imidazolium BF4^−] | ± | + | + | + | ± | + | – | – | – | – | – | –
CCCC[n+]1ccc(C)cc1.F[B-](F)(F)F [4-MBP^+ BF4^−, 4-methyl-butyl-pyridinium BF4^−] | ± | + | – | – | + | + | ± | + | – | – | – | –
Methyl-methyl-imidazolium-methyl sulphate [MMIm^+ MeSO4^−] | – | – | – | – | – | – | – | – | ± | + | + | –
CCCCn1cc[n+](C)c1.F[B-](F)(F)F [BMIm^+ BF4^−, Butyl-methyl-imidazolium BF4^−] | ± | + | ± | + | + | + | – | – | – | – | – | –
CCCCCCCCn1cc[n+](C)c1.F[B-](F)(F)F [OMIm^+ BF4^−, Octyl-methyl-imidazolium BF4^−] | ± | + | + | ± | + | + | – | – | – | – | – | –
CCCCn1cc[n+](C)c1.O=S(=O)([O-])C(F)(F)F [BMIm^+ CF3SO3^−, Butyl-methyl-imidazolium-trifluoro methane sulphonate (=triflate)] | ± | + | + | + | + | + | + | + | – | – | – | –
CCCCn1cc[n+](C)c1.O=S(=O)([N-]S(=O)(=O)C(F)(F)F)C(F)(F)F [BMIm^+ (CF3SO2)2N^−] | – | – | – | – | + | + | + | + | – | – | – | without the lipase activity diminishing

— patent US7754462B2, “Enzyme catalysis in the presence of ionic liquids” (priority 2000, dated 2010)
